Experimental data from patent CN101862374A, “莲子心及其提取物的新用途” (Individual, priority 2010, dated 2010).
Blank lines part the entries; values can stand above or below the compound they belong to.

Experiments:
[1] = test system: type II 5α-reductase [II型5α-还原酶]; test: Spectrophotometric (NADPH, 340 nm) 5α-reductase inhibition; format: biochemical; conditions: for mean inhibition rate: NADPH consumption, 10 min, 37 °C, serial concentrations, average; for inhibition rate compared with finasteride: versus finasteride [非那甾胺]
[2] = test system: type II 5α-reductase [II型5α-还原酶]; test: DHT kit assay of 5α-reductase inhibition; format: biochemical; conditions: 37 °C, 30 min
[3] = test system: prostate smooth muscle α1-AR [前列腺平滑肌α1-AR]; test: Competitive inhibition of 125IBE binding to α1-AR of prostate smooth muscle membranes; design: species or system rat; conditions: high dose
[4] = test system: rat myocardium with ischemia-reperfusion injury [大鼠缺血再灌注损伤心肌]; conditions: cited from earlier work
[5] = test system: experimental hyperlipidemic rats [实验性高脂血症大鼠]; conditions: rat; cited from earlier work
[6] = test system: rat cerebral ischemia-reperfusion [大鼠脑缺血再灌注]; conditions: cited from earlier work
autoxidation [自氧化] = conditions: cited from earlier work
[7] = test system: oxidatively damaged erythrocytes [氧化损伤红细胞]; conditions: cited from earlier work
[8] = test system: hyperlipidemia model rats [高血脂症模型大鼠]; conditions: rat; cited from earlier work
[9] = test system: platelets of hyperlipidemia patients and healthy persons [高脂血症患者和健康人血小板]; conditions: in vitro, blood, several inducers; cited from earlier work

mean inhibition rate [1]: 71.43%
inhibition of 5α-reductase activity (in words) ([1]; by NADPH determination): 有明显抑制作用
inhibition rate compared with finasteride [1]: 强于非那甾胺
inhibition of 5α-reductase activity by change of DHT concentration [2]: 有明显抑制作用
inhibition of prostate smooth muscle α1-AR [3]: 能抑制前列腺平滑肌α1-AR
Compound: COc1cc2c(cc1OC)[C@@H](Cc1ccc(O)c(Oc3cc4c(cc3OC)CCN(C)[C@@H]4Cc3ccc(O)cc3)c1)N(C)CC2 [莲心碱]
area of myocardial infarction [4]: 可减少心肌梗死的面积
damage of myocardial cells [4]: 减轻心肌细胞的损伤
protection of ischemia-reperfusion injured myocardium [4]: 有保护作用
atherosclerosis index [5]: 显著降低
serum low-density lipoprotein cholesterol [5]: 显著降低
serum total cholesterol [5]: 显著降低
serum triglycerides [5]: 显著降低
C-Fos protein expression after cerebral ischemia-reperfusion [6]: 抑制脑缺血再灌注后NOS和C-Fos蛋白的表达
NOS expression after cerebral ischemia-reperfusion [6]: 抑制脑缺血再灌注后NOS和C-Fos蛋白的表达
extent of infarct lesion [6]: 可显著减少大鼠梗死病灶范围

mean inhibition rate [1]: 65.48%
inhibition rate compared with finasteride [1]: 强于非那甾胺
inhibition of 5α-reductase activity by change of DHT concentration [2]: 有明显抑制作用
Compound: COc1ccc(C[C@@H]2c3cc(Oc4cc(C[C@@H]5c6cc(O)c(OC)cc6CCN5C)ccc4O)c(OC)cc3CCN2C)cc1 [异莲心碱]
inhibition of autoxidation (autoxidation [自氧化]): 能显著抑制自氧化
protection of oxidatively damaged erythrocytes [7]: 对氧化损伤红细胞有保护作用

mean inhibition rate [1]: 57.14%
Compound: CC(C)(C)NC(=O)[C@H]1CC[C@H]2[C@@H]3CC[C@H]4NC(=O)C=C[C@]4(C)[C@H]3CC[C@]12C [非那雄胺, reference compound]

mean inhibition rate [1]: 68.22%
inhibition rate compared with finasteride [1]: 强于非那甾胺
inhibition of 5α-reductase activity by change of DHT concentration [2]: 有明显抑制作用
inhibition of prostate smooth muscle α1-AR [3]: 能抑制前列腺平滑肌α1-AR
Compound: COc1ccc(C[C@@H]2c3cc(Oc4cc(C[C@@H]5c6cc(OC)c(OC)cc6CCN5C)ccc4O)c(OC)cc3CCN2C)cc1 [甲基莲心碱]
antioxidant action of the organism [8]: 增强机体抗氧化作用
degree of lipid peroxidation [8]: 减轻脂质过氧化的程度
effect on blood lipids [8]: 具有显著的抑制作用
inhibition of platelet aggregation [9]: 可明显抑制多种诱聚剂诱导的高脂血症患者和健康人血小板聚集
